How the values were obtained:
[1] = biological target: Gamma-aminobutyric acid receptor subunit alpha-1 (Rattus norvegicus, UniProt P62813)
D(1A) dopamine receptor = D(1A) dopamine receptor (Homo sapiens, UniProt P21728); assay type: functional, cell-based
Glucocorticoid receptor = biological target: T1, Glucocorticoid receptor (Homo sapiens, UniProt P04150)
T1 sequence (P04150 whole entry): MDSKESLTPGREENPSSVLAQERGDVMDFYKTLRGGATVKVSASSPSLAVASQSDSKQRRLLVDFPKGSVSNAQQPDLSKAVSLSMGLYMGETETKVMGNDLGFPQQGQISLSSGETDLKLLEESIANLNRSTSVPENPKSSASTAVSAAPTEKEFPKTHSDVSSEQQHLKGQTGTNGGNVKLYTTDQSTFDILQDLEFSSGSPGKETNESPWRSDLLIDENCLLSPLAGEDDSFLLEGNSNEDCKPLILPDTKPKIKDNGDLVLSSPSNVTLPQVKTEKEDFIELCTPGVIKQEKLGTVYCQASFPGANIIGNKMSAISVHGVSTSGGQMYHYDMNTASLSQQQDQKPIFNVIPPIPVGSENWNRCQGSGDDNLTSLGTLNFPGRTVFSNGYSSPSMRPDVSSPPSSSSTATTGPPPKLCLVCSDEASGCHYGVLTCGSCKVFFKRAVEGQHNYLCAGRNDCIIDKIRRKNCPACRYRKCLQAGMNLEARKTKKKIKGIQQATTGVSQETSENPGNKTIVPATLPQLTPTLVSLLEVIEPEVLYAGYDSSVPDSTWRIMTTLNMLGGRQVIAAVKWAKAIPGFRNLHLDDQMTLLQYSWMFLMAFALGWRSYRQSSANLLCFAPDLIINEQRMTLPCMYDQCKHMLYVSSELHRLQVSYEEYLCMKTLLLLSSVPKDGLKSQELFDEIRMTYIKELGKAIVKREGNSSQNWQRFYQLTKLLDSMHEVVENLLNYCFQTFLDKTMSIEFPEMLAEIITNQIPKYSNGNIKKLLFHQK

[2] = biological target: Sodium-dependent noradrenaline transporter (Homo sapiens, UniProt P23975)
[3] = biological target: T2, Type-1 angiotensin II receptor (Homo sapiens, UniProt P30556)
T2 sequence (P30556 whole entry): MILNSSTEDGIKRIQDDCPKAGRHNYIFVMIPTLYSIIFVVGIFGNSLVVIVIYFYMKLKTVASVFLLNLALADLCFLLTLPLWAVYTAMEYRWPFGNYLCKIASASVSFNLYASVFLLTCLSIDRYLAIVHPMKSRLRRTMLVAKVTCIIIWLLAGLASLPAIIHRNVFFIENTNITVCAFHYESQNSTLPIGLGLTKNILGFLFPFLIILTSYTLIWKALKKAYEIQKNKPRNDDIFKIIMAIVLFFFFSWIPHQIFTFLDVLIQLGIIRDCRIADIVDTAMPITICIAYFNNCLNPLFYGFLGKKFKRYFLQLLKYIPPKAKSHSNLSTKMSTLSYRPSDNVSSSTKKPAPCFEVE

[4] = biological target: Sodium-dependent serotonin transporter (Homo sapiens, UniProt P31645)
[5] = biological target: 5-hydroxytryptamine receptor 2A (Homo sapiens, UniProt P28223); assay type: functional, cell-based
[6] = biological target: Voltage-dependent L-type calcium channel subunit alpha-1C (Rattus norvegicus, UniProt P22002); assay type: functional
[7] = biological target: 5-hydroxytryptamine receptor 2B (Homo sapiens, UniProt P41595); assay type: functional, cell-based
[8] = biological target: Voltage-gated inwardly rectifying potassium channel KCNH2 (Homo sapiens, UniProt Q12809); assay type: functional; settings: read-out: AC50
[9] = biological target: T3, Muscarinic acetylcholine receptor M2 (Homo sapiens, UniProt P08172); assay type: functional, cell-based
T3 sequence (P08172 whole entry): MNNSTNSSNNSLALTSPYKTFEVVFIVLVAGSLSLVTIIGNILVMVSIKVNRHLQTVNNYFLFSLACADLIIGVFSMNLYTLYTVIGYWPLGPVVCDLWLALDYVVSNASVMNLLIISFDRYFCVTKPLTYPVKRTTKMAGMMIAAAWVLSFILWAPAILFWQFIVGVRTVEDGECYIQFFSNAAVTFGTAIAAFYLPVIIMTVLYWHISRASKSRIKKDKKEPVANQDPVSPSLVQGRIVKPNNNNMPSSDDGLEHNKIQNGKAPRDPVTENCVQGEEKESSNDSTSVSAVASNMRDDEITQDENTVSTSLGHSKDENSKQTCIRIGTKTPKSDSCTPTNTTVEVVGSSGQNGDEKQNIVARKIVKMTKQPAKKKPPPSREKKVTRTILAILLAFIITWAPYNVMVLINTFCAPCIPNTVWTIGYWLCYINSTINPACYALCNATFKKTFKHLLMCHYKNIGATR

[10] = biological target: T4, 5-hydroxytryptamine receptor 1A (Homo sapiens, UniProt P08908); assay type: functional, cell-based
T4 sequence (P08908 whole entry): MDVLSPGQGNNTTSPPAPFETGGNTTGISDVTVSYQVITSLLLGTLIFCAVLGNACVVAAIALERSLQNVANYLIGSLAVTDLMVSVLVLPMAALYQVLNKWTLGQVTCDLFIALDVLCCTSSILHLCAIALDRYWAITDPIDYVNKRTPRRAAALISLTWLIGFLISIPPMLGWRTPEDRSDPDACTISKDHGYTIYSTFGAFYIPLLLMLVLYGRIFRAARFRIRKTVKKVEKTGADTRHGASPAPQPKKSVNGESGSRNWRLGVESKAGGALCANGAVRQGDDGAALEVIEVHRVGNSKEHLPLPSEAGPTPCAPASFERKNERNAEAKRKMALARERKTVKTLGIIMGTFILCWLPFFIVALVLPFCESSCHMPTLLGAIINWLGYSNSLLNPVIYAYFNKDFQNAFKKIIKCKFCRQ
Further: assay procedure not described here.

Sequence of Sodium-dependent noradrenaline transporter (P23975 whole entry): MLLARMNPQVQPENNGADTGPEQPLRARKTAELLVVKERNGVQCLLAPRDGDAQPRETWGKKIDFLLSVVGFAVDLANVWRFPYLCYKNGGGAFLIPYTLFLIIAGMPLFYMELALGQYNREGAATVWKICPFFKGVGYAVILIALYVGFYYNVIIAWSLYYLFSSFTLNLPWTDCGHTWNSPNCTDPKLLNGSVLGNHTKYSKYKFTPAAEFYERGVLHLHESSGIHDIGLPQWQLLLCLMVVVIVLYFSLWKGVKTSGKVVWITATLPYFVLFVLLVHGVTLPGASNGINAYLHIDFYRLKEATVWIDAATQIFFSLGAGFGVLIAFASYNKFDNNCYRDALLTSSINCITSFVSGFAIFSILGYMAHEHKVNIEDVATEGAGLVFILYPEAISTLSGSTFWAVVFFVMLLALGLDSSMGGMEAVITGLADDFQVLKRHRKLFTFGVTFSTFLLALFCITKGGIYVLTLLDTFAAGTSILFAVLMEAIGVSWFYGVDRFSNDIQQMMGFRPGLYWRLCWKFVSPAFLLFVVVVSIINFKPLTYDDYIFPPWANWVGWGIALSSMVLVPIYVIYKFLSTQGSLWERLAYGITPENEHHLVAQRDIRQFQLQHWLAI
Sequence of 5-hydroxytryptamine receptor 2A (P28223 whole entry): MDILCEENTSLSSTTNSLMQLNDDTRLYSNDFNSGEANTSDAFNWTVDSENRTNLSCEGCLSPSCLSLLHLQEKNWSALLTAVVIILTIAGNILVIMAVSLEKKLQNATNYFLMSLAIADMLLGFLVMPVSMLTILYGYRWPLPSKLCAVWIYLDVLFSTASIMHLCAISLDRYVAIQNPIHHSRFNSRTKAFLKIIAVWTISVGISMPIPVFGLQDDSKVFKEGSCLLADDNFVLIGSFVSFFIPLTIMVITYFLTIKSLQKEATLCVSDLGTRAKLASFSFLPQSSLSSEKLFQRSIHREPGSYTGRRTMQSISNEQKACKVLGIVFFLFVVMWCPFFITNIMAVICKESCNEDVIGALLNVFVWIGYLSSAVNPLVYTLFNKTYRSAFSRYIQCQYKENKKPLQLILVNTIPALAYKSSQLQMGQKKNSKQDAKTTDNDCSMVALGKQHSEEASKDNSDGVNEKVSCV
Sequence of 5-hydroxytryptamine receptor 2B (P41595 whole entry): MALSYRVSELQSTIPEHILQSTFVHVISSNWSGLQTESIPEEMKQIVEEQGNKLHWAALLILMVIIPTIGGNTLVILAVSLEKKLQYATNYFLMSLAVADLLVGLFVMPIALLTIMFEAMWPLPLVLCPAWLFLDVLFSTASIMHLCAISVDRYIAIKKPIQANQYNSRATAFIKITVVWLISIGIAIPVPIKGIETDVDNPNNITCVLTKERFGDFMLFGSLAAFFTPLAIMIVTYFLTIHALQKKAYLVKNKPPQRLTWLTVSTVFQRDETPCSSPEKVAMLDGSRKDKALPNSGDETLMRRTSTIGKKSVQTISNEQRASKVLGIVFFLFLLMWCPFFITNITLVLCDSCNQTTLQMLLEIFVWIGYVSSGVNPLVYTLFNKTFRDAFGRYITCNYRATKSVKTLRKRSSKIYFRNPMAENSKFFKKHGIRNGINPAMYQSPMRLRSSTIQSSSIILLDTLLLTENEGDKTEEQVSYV
Sequence of Sodium-dependent serotonin transporter (P31645 whole entry): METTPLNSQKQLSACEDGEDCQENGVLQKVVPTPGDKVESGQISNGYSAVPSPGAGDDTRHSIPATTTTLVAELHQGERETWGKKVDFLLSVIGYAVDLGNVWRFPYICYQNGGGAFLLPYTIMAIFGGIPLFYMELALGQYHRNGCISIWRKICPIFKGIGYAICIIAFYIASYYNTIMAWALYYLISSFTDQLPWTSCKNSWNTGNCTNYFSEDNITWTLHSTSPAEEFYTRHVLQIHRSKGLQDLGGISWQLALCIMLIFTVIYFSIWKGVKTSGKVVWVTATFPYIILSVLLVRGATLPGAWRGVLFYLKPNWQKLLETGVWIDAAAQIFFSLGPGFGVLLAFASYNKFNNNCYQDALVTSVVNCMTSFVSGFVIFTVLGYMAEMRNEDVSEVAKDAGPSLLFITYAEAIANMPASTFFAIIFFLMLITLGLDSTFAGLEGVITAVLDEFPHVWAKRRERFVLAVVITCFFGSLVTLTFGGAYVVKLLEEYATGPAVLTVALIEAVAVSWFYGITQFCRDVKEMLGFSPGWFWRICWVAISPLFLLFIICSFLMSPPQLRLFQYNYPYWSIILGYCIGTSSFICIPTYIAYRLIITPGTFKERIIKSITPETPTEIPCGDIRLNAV
Sequence of D(1A) dopamine receptor (P21728 whole entry): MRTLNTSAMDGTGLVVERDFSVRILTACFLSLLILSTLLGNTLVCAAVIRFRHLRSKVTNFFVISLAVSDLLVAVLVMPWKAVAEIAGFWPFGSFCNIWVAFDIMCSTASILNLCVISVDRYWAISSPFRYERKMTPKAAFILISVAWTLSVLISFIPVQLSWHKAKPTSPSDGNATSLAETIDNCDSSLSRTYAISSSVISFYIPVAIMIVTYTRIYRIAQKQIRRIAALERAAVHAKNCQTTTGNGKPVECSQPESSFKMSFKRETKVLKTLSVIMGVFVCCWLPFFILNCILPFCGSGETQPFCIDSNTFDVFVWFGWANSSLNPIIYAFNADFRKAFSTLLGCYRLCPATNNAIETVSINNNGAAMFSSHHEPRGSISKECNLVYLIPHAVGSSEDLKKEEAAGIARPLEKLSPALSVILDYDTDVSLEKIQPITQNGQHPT
Sequence of Gamma-aminobutyric acid receptor subunit alpha-1 (P62813 whole entry): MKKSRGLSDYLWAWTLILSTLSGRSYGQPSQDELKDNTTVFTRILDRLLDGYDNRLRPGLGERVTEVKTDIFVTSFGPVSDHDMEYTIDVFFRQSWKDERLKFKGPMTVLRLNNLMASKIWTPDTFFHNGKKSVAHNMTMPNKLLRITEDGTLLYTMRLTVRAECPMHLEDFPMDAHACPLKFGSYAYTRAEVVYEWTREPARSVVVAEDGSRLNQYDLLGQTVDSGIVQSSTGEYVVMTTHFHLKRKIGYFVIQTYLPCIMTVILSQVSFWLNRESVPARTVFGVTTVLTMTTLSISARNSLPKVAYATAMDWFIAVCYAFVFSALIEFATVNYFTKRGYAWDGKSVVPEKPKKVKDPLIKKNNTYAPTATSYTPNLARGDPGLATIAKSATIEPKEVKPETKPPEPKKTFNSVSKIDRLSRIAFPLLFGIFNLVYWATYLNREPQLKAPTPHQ
Sequence of Voltage-gated inwardly rectifying potassium channel KCNH2 (Q12809 whole entry): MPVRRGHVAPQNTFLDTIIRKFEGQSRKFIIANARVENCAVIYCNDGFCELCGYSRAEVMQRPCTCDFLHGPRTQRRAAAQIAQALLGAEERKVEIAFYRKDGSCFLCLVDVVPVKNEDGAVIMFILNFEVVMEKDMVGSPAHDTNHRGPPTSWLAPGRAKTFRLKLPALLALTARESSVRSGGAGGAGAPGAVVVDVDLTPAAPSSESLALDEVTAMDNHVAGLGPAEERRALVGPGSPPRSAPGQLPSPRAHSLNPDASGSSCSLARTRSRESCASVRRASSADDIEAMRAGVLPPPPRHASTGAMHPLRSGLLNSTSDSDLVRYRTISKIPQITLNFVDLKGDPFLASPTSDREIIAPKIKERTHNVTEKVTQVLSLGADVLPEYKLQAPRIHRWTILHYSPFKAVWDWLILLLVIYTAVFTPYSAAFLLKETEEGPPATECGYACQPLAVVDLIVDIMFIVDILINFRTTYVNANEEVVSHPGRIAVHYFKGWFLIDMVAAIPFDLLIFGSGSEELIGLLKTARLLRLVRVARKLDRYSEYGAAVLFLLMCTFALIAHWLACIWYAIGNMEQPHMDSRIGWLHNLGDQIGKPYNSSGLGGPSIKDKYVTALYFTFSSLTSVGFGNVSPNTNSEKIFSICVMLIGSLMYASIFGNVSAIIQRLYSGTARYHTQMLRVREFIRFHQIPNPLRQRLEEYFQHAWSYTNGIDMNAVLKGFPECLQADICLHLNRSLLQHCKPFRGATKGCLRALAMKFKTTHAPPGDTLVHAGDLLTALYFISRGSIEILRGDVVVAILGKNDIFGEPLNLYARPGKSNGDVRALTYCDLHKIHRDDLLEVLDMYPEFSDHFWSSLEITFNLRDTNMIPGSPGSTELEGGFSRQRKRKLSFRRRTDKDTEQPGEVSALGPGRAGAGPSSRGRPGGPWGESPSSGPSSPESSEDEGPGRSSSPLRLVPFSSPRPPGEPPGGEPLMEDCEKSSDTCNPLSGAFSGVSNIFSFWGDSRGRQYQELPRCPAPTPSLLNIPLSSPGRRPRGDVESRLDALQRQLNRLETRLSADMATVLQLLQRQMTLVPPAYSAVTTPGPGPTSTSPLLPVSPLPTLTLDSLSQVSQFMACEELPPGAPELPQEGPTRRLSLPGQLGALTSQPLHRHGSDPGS

SMILES	AC50 [1]	AC50 (D(1A) dopamine receptor)	AC50 (Glucocorticoid receptor)	AC50 [2]	AC50 [3]	AC50 [4]	AC50 [5]	AC50 [6]	AC50 [7]	AC50 [8]	AC50 [9]	AC50 [10]
CCCCCCOc1ccccc1C(N)=O [EXALAMIDE]	> 30 µM	> 30 µM	> 30 µM	> 30 µM	> 30 µM	> 30 µM	> 30 µM	> 30 µM	1.1 µM	> 30 µM	–	–
Cc1ccc(-n2nccn2)c(C(=O)N2CCN(c3nc4cc(Cl)ccc4o3)CC[C@H]2C)c1 [SUVOREXANT]	> 30 µM	> 30 µM	> 30 µM	> 30 µM	> 30 µM	> 30 µM	> 30 µM	–	> 30 µM	22 µM	> 30 µM	> 30 µM
OC(CNCC(O)C1CCc2cc(F)ccc2O1)C1CCc2cc(F)ccc2O1 (centres undefined) [NEBIVOLOL]	> 30 µM	> 30 µM	> 30 µM	1.5 µM	> 30 µM	0.75 µM	7.1 µM	24 µM	8.8 µM	0.83 µM	> 30 µM	–
CCC1(CC)C(=O)NCC(C)C1=O (centres undefined) [METHYPRYLON]	> 30 µM	> 30 µM	> 30 µM	> 30 µM	> 30 µM	> 30 µM	> 30 µM	–	> 30 µM	> 30 µM	> 30 µM	> 30 µM
CN1CCC(=C2c3ccccc3CCc3sccc32)CC1 [PIZOTYLINE]	> 10 µM	> 30 µM	> 30 µM	1.1 µM	> 30 µM	8.88 µM	0.0379 µM	20.1 µM	0.0279 µM	2.31 µM	> 30 µM	–
CCOC(=O)[N-]c1cn(N2CCOCC2)n[o+]1 [MOLSIDOMINE]	> 30 µM	> 30 µM	> 30 µM	> 30 µM	> 30 µM	> 30 µM	> 30 µM	> 30 µM	> 30 µM	> 30 µM	> 30 µM	–
CC(C(=O)O)c1ccc(N2Cc3ccccc3C2=O)cc1 (centres undefined) [INDOPROFEN]	> 30 µM	0.51 µM	> 30 µM	> 30 µM	> 30 µM	> 30 µM	> 30 µM	> 30 µM	> 30 µM	> 30 µM	> 30 µM	–
COc1ccc2c3c1O[C@H]1C(=O)CC[C@@]4(O)[C@@H](C2)N(C)CC[C@]314 [OXYCODONE]	> 30 µM	> 30 µM	> 30 µM	> 30 µM	> 30 µM	> 30 µM	> 30 µM	> 30 µM	> 30 µM	> 30 µM	> 30 µM	–
Clc1ccc(CCCOCCCN2CCCCC2)cc1 [PITOLISANT]	> 30 µM	> 30 µM	> 30 µM	13 µM	> 30 µM	9.9 µM	> 30 µM	–	> 30 µM	1.7 µM	> 30 µM	> 30 µM
O=C(NCCNCC(O)COc1ccc(O)cc1)N1CCOCC1 (centres undefined) [XAMOTEROL]	> 30 µM	> 30 µM	> 30 µM	> 30 µM	> 30 µM	> 30 µM	> 30 µM	–	> 30 µM	> 30 µM	> 30 µM	> 30 µM
O=C(O)C1=C(CSc2nnnn2CS(=O)(=O)O)CS[C@@H]2[C@H](NC(=O)[C@H](O)c3ccccc3)C(=O)N12 [CEFONICID]	> 30 µM	> 30 µM	> 30 µM	> 30 µM	> 30 µM	30 µM	> 30 µM	> 30 µM	> 30 µM	> 30 µM	> 30 µM	–
CC(C[N+](C)(C)C)OC(N)=O (centres undefined) [BETHANECHOL]	> 10 µM	> 10 µM	> 10 µM	> 10 µM	> 10 µM	> 10 µM	> 10 µM	> 10 µM	> 10 µM	> 30 µM	3.9 µM	–
CC(=O)OCC(=O)[C@@]12N=C(C)O[C@@H]1C[C@H]1[C@@H]3CCC4=CC(=O)C=C[C@]4(C)[C@H]3[C@@H](O)C[C@@]12C [DEFLAZACORT]	> 30 µM	> 30 µM	0.66 µM	> 30 µM	> 30 µM	> 30 µM	> 30 µM	> 30 µM	> 30 µM	> 30 µM	> 30 µM	–
CCc1c(Cl)c(O)c(Cl)c(O)c1C(=O)O[C@H]1[C@H](O)[C@H](OC)[C@H](OC/C2=C\C=C\C[C@H](O)/C(C)=C/[C@H](CC)[C@@H](O[C@@H]3OC(C)(C)[C@@H](OC(=O)C(C)C)[C@H](O)[C@@H]3O)/C(C)=C/C(C)=C/C[C@@H]([C@@H](C)O)OC2=O)O[C@@H]1C [FIDAXOMICIN]	> 10 µM	–	> 30 µM	> 30 µM	> 30 µM	> 30 µM	18 µM	> 10 µM	> 30 µM	> 30 µM	–	–
CC(C)=CCC/C(C)=C/C=C/C(C)=C/C=C/C(C)=C/C=C/C=C(C)/C=C/C=C(C)/C=C/C=C(\C)CCC=C(C)C [LYCOPENE]	> 30 µM	> 30 µM	> 30 µM	> 30 µM	> 30 µM	> 30 µM	> 30 µM	> 30 µM	> 30 µM	> 30 µM	> 30 µM	–
COC(=O)C1=C(C)NC(C)=C(C(=O)OC2CCCN(Cc3ccccc3)C2)C1c1cccc([N+](=O)[O-])c1 (centres undefined) [BENIDIPINE]	> 30 µM	> 30 µM	> 30 µM	13 µM	> 30 µM	> 30 µM	> 30 µM	0.014 µM	> 30 µM	2.01 µM	> 30 µM	–
CC(Oc1c(Cl)cccc1Cl)C1=NCCN1 (centres undefined) [LOFEXIDINE]	> 30 µM	> 30 µM	> 30 µM	> 30 µM	> 30 µM	11 µM	> 30 µM	> 30 µM	> 30 µM	8.86 µM	> 30 µM	–
